Test results from publication PMC3274548, “Toward New Therapeutics for Skin and Soft Tissue Infections: Propargyl-Linked Antifolates Are Potent Inhibitors of MRSA and Streptococcus pyogenes” (PLoS ONE, 2012).
Values after ≈ are worked out from the molar mass of the structure shown. Where two headings read alike, the source gives them in different places. Each block holds one compound with its values, some of them ahead of it.

What was measured:
S. aureus DHFR = biological target: T1, S. aureus DHFR (Staphylococcus aureus, UniProt P0A017); assay: biochemical; assay type: biochemical
T1 construct: the DHFR gene was inserted into vector pET41 with a His8 tag for purification; His8; made in house; host or cells: E. coli BL21 (DE3)
Method: (§1) S. aureus DHFR was cloned, expressed and purified as previously described. Briefly, the DHFR gene was inserted into vector pET41 with a His8 tag for purification. The protein was expressed in E. coli BL21 (DE3) cells. […] The protein was concentrated to ∼5 mg/mL. S. pyogenes DHFR was cloned using PCR from genomic DNA and inserted in vector pET-41.
(§2) Enzyme inhibition assays were performed by monitoring the rate of NADPH oxidation by the DHFR enzyme at an absorbance of 340 nm over five minutes. Assays were performed in the presence of saturating concentrations of NADPH (100 µM) and initiated with dihydrofolate (1 mM). All assays were completed at 25°C in a buffer containing 20 mM TES pH 7.0, 50 mM KCl, 10 mM 2-mercaptoethanol, 0.5 mM EDTA and 1 mg/mL BSA. Inhibition was measured at least three times with inhibitor concentrations near the IC50 value and the average IC50 value is reported with a standard deviation.

S. pyogenes DHFR = S. pyogenes DHFR (Streptococcus pyogenes, UniProt Q9A091); assay: biochemical; assay type: biochemical; settings: for Selectivity (h/Sp): IC50 (human)/IC50 (pathogen)
Method: as §1, §2

MRSA (S.aureus 13709) = assay: MIC, broth microdilution with Alamar Blue; assay type: cell-based, Staphylococcus aureus; settings: for Selectivity MRSA: IC50 (MCF10)/MIC (pathogen), both values in µM
Method: (§3) Stock solutions of standard antibiotics and test compounds were made at 50 mM in DMSO. […] For susceptibility testing, 10 µL of glycerol stock was suspended in a 10 mL shake flask culture of chemically defined Isosensitest broth (Oxoid) supplemented with 2% w/v glucose. A sample of the shake flask culture was diluted to 1×10^6 cells/mL in media and added to 96-well test plates (100 µL per well) containing test compounds dispensed in DMSO (2 µL) using serial two-fold dilutions. After an incubation period (30°C) determined from the strain specific doubling time, a 0.03% w/v aqueous solution of resazurin (10 µL) was added and the plates were allowed to incubate; each well was then scored for dye reduction.

Streptococcus pyogenes = assay: MIC, broth microdilution with Alamar Blue; assay type: cell-based; settings: for Selectivity S. pyogenes: IC50 (MCF10)/MIC (pathogen), both values in µM
Method: as §3

Human DHFR = biological target: T2, Human DHFR (Homo sapiens, UniProt P00374); assay: DHFR enzyme inhibition assay (NADPH oxidation, 340 nm); assay type: biochemical
T2 sequence (P00374 1-187): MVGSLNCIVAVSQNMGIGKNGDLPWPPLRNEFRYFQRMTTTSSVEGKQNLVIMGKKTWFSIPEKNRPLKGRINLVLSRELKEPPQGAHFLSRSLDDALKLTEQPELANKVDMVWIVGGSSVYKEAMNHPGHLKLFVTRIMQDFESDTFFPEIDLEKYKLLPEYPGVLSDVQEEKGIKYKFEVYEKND
Method: as §2

MCF-10 cells = assay: Mammalian cell toxicity (Alamar Blue); assay type: cell-based; settings: read-out: IC50 MCF-10
Method: Adherent cell lines were maintained in Eagle's Minimal Essential Media (Sigma-Aldrich, St. Louis, MO, USA) with 2 mM glutamine and Earle's Balanced Salt Solution (HyClone, Logan, UT, USA) adjusted to contain 1.5 g/L sodium bicarbonate, 0.1 mM non-essential amino acids, 1 mM sodium pyruvate and 10% fetal calf serum. Fetal calf serum used in these assays was lot matched throughout. […] Toxicity assays were conducted between passages 10–20. Target compound toxicity was measured by incubating the test compound with the cells for 4 h, washing the cells and finally treating the cells with Alamar Blue. After 12–24 h, the fluorescence of the reduced dye was measured. Fluorescence intensity as a function of test compound concentration was fit to the Fermi equation, using non-linear least squares regression analysis, to estimate IC50 values.

HepG2 cells = assay: Mammalian cell toxicity (Alamar Blue); assay type: cell-based; settings: Homo sapiens, cytotoxicity, 4 h incubation
Method: Fetal calf serum used in these assays was lot matched throughout. All cultures were maintained under a humidified 5% CO2 atmosphere at 37°C, had media refreshed twice weekly and were subcultured by trypsinization and resuspension at a ratio of 1∶5 each week. Toxicity assays were conducted between passages 10–20. Target compound toxicity was measured by incubating the test compound with the cells for 4 h, washing the cells and finally treating the cells with Alamar Blue. After 12–24 h, the fluorescence of the reduced dye was measured. Fluorescence intensity as a function of test compound concentration was fit to the Fermi equation, using non-linear least squares regression analysis, to estimate IC50 values.

[1] = S. aureus DHFR, average of at least three measurements, read-out: IC50 (nM) Sa
[2] = human DHFR, average of at least three measurements, read-out: IC50 (nM) Human
[3] = Staphylococcus aureus, MRSA, value in parentheses, read-out: MIC MRSA
[4] = Staphylococcus aureus, MRSA, read-out: MIC MRSA
[5] = Streptococcus pyogenes, value in parentheses, read-out: MIC S. pyogenes
[6] = Streptococcus pyogenes, read-out: MIC S. pyogenes
[7] = Staphylococcus aureus, MRSA, 10% fetal calf serum, read-out: MIC MRSA +FCS
[8] = Staphylococcus aureus, MRSA, 10% fetal calf serum, value in parentheses, read-out: MIC MRSA +FCS
[9] = Streptococcus pyogenes, 10% FCS, read-out: MIC S. pyogenes +FCS
[10] = Streptococcus pyogenes, 10% FCS, value in parentheses, read-out: MIC S. pyogenes +FCS
[11] = Homo sapiens, MCF10, cytotoxicity, 4 h incubation

Sequence of S. pyogenes DHFR (Q9A091 entry or part of it): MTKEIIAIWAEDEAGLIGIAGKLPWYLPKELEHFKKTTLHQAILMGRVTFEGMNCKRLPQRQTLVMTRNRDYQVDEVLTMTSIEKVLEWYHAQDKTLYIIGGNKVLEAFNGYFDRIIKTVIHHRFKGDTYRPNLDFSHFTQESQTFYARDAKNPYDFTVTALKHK

Selectivity (h/Sa) (S. aureus DHFR; IC50 (human)/IC50 (pathogen)): 10
IC50 (S. aureus DHFR; [1]): 28 ± 1.7 nM
Selectivity (h/Sp) (S. pyogenes DHFR): 11
IC50 (S. pyogenes DHFR; S. pyogenes DHFR, average of at least three measurements, read-out: IC50 (nM) Sp): 26 ± 1.7 nM
MIC MRSA (MRSA (S.aureus 13709)): 0.66 µg/mL (≈ 2.01 µM)
MIC MRSA +FCS (MRSA (S.aureus 13709); 10% fetal calf serum): 5.2 µg/mL (≈ 15.8 µM)
MIC (MRSA (S.aureus 13709); 10% fetal calf serum, value in parentheses, read-out: MIC MRSA +FCS): 16 µM
MIC (MRSA (S.aureus 13709); value in parentheses, read-out: MIC MRSA): 2 µM
MIC S. pyogenes (Streptococcus pyogenes): 0.66 µg/mL (≈ 2.01 µM)
MIC S. pyogenes +FCS (Streptococcus pyogenes; 10% FCS): 2.6 µg/mL (≈ 7.92 µM)
MIC (Streptococcus pyogenes; 10% FCS, value in parentheses, read-out: MIC S. pyogenes +FCS): 8 µM
MIC (Streptococcus pyogenes; value in parentheses, read-out: MIC S. pyogenes): 2 µM
IC50 (Human DHFR; [2]): 290 ± 36 nM
SMILES: CCc1nc(N)nc(N)c1C#CCc1cccc(-c2ccccc2)c1 [Compound 8]
IC50 (MCF-10 cells; cytotoxicity, 4 h incubation): 32000 nM

SMILES: COc1cc(-c2cc(C)cc(C)c2)cc(C(C)C#Cc2c(C)nc(N)nc2N)c1 (centres unmarked) [Compound 1]
MIC MRSA (MRSA (S.aureus 13709)): 5.76 µg/mL (≈ 14.9 µM)
MIC (MRSA (S.aureus 13709); [3]): 16 µM
MIC (MRSA (S.aureus 13709); [4]): 5.8 µg/mL
MIC S. pyogenes (Streptococcus pyogenes): 0.097 µg/mL (≈ 0.251 µM)
MIC (Streptococcus pyogenes; [5]): 0.25 µM
MIC (Streptococcus pyogenes; [6]): 0.1 µg/mL
IC50 (MCF-10 cells; Homo sapiens, MCF10, 4 h): 47000 nM

SMILES: COc1cc(C(C)C#Cc2c(C)nc(N)nc2N)cc(N2CCOCC2)c1 (centres unmarked) [Compound 31]
Selectivity (h/Sa) (S. aureus DHFR; IC50 (human)/IC50 (pathogen)): 14
IC50 (S. aureus DHFR; [1]): 29 ± 2 nM
Selectivity (h/Sp) (S. pyogenes DHFR): 15
Selectivity MRSA (MRSA (S.aureus 13709)): 116
MIC (MRSA (S.aureus 13709); [7]): 2.94 µg/mL
MIC (MRSA (S.aureus 13709); [8]): 8 µM
MIC (MRSA (S.aureus 13709); [3]): 4 µM
MIC (MRSA (S.aureus 13709); [4]): 1.5 µg/mL
Selectivity S. pyogenes (Streptococcus pyogenes): 58
MIC (Streptococcus pyogenes; [9]): 2.94 µg/mL
MIC (Streptococcus pyogenes; [10]): 8 µM
MIC (Streptococcus pyogenes; [5]): 8 µM
MIC (Streptococcus pyogenes; [6]): 2.94 µg/mL
IC50 (Human DHFR; [2]): 400 ± 40 nM
IC50 (HepG2 cells): 494000 nM
IC50 (MCF-10 cells; [11]): 462000 nM

SMILES: CCc1nc(N)nc(N)c1C#CCc1cccc(-c2cncnc2)c1 [Compound 37]
IC50 (S. aureus DHFR): 35 ± 1.1 nM
Selectivity (h/Sa) (S. aureus DHFR; IC50 (human)/IC50 (pathogen)): 5
Selectivity (h/Sp) (S. pyogenes DHFR): 7
Selectivity MRSA (MRSA (S.aureus 13709)): >1,000
MIC (MRSA (S.aureus 13709); [7]): 0.16 µg/mL
MIC (MRSA (S.aureus 13709); [8]): 0.5 µM
MIC (MRSA (S.aureus 13709); [3]): 0.5 µM
MIC (MRSA (S.aureus 13709); [4]): 0.16 µg/mL
Selectivity S. pyogenes (Streptococcus pyogenes): >1,000
MIC (Streptococcus pyogenes; [9]): 0.16 µg/mL
MIC (Streptococcus pyogenes; [10]): 0.5 µM
MIC (Streptococcus pyogenes; [5]): 0.5 µM
MIC (Streptococcus pyogenes; [6]): 0.16 µg/mL
IC50 (Human DHFR): 160 ± 13 nM
IC50 (MCF-10 cells; [11]): > 500000 nM

SMILES: COc1ccc(-c2ccccc2)cc1C(C)C#Cc1c(C)nc(N)nc1N (centres unmarked) [Compound 10]
Selectivity (h/Sa) (S. aureus DHFR): 1.3
IC50 (S. aureus DHFR; [1]): 75 ± 4 nM
Selectivity (h/Sp) (S. pyogenes DHFR): 4
Selectivity MRSA (MRSA (S.aureus 13709)): 19
MIC (MRSA (S.aureus 13709); [7]): 11.4 µg/mL
MIC (MRSA (S.aureus 13709); [8]): 32 µM
MIC (MRSA (S.aureus 13709); [3]): 2 µM
MIC (MRSA (S.aureus 13709); [4]): 0.72 µg/mL
Selectivity S. pyogenes (Streptococcus pyogenes): 76
MIC (Streptococcus pyogenes; [9]): 5.7 µg/mL
MIC (Streptococcus pyogenes; [10]): 16 µM
MIC (Streptococcus pyogenes; [5]): 0.5 µM
MIC (Streptococcus pyogenes; [6]): 0.18 µg/mL
IC50 (Human DHFR; [2]): 97 ± 10 nM
IC50 (HepG2 cells): 94000 nM
IC50 (MCF-10 cells; [11]): 38000 nM
